Measurements as given in patent US20220193081A1 (Ellamed IP & Services PTE. LTD., priority 2019, published 2022).
Marks after values point to notes of the source that are not given here.

Legend:
[1] = tablets or oral suspension; cited from earlier work
[2] = Maximum dissolution study in 50% aqueous ethanol, visual inspection (Example 5); assay type: physicochemical; details: pH 5.5, NaOH
Experimental: (§1) Before being placed on storage, and at time points 7, 42 days and 2 months, the concentration of sildenafil in the mixtures were assayed using HPLC. The samples were then stored at either −20° C., 2-8° C. or 25° C. for periods of up to 2 months. Periodically, the samples were visually inspected for evidence of crystallization.

[3] = Ionic strength study, visual inspection: sildenafil citrate and sucralose in absolute alcohol mixed with equal volume of NaCl solution or purified water (Example 3); assay type: physicochemical
Experimental: as §1, with “The mixtures were then either placed on storage or NaOH 1N solution was introduced to reach a predetermined pH values. Before” for “Before”, “7 and” for “7,”, “days,” for “days and 2 months,”, “42 days.” for “2 months.”

[4] = Maximum dissolution study in 50% aqueous ethanol, HPLC assay (Example 5); assay type: physicochemical; details: added until precipitation occurred, pH 5.5, NaOH
Experimental: as §1

[5] = Extended stability in buffered 50% ethanol, HPLC assay of sildenafil and impurities (Example 6); assay type: physicochemical
Experimental: Before being placed on storage in glass vials, plastic containers or Easysnap® blisters, and at time points up to 160 days, the concentration of sildenafil and its impurities in the mixtures were assayed using HPLC. The samples were then stored at 25° C./60% RH, 30° C./65% RH or 40° C./75% RH for periods of up to 160 days. The results of the assays are shown in Table 10 (sildenafil), Table 11 (Impurity B) and Table 12 (Impurity D).

[6] = Visual inspection on storage of sildenafil citrate with equal concentration of sucralose in pH adjusted 50% ethanol (Example 2); assay type: physicochemical
Experimental: At room temperature, a phosphate buffer was prepared by weighing 3.9 g of NaH2PO4.2H2O into a 500 mL volumetric flask and adding approximately 300 mL of purified water until the phosphate fully dissolved. The pH was then adjusted to 7 with the introduction of NaOH and dilute to the requisite volume by the further addition of purified water.
A 50% ethanol mixture was prepared by introducing either purified water, taken from a MilliQ™ unit or phosphate buffer, to equivalent volumes of Ph.Eur. grade absolute alcohol. The pH of the resultant mixture was then adjusted by using either NaOH 1N solutions and/or Sodium Citrate 1N solutions to reach predetermined pH values.
Samples of sucralose were then dissolved in the pH adjusted 50% ethanol, whilst stirred with a magnetic stirrer and a needle, to a predetermined concentration. […] After preparation, the solutions were each filtered through PDVF 0.22 micro filter of 13 mm in size and placed in polypropylene containers of adequate volume.
Before being placed on storage, and at time points 7 and 42 days, the concentration of sildenafil in the mixture was assayed using HPLC. The samples were then stored at either −20° C., 2-8° C. or 25° C. for periods of up to 42 days. Periodically, the samples were visually inspected for evidence of precipitation or crystallization. […]

[7] = Easysnap ®, 25° C./60% RH, Day 32
[8] = Easysnap ®, 25° C./60% RH, Day 80
[9] = Easysnap ®, 25° C./60% RH, Day 159
[10] = Easysnap ®, 30° C./65% RH, Day 32
[11] = Easysnap ®, 40° C./75% RH, Day 32
[12] = plastic, 25° C./60% RH, Day 159

CCCc1nn(C)c2c(=O)nc(-c3cc(S(=O)(=O)N4CCN(C)CC4)ccc3OCC)[nH]c12.O=C(O)CC(O)(CC(=O)O)C(=O)O [sildenafil citrate, 1-[[3-(4,7-Dihydro-1-methyl-7-oxo-3-propyl-1H-pyrazolo[4,3-d]pyrimidin-5-yl)-4-ethoxyphenyl]sulfonyl]-4-methylpiperazine citrate salt]
absolute bioavailability [1]: about 41% | visual inspection for crystallization ([2]; Day 0 51.65 mg/ml, without sucralose, 2-8° C.): Prec. | visual inspection for crystallization ([2]; Day 0 51.65 mg/ml, without sucralose, −20° C.): Prec. | visual inspection for crystallization ([2]; Day 0 82.79 mg/ml, with sucralose, 2-8° C.): Prec. | visual inspection for crystallization ([2]; Day 0 82.79 mg/ml, with sucralose, −20° C.): Prec. | visual inspection for crystallization ([2]; Day 0 123.95 mg/ml, with sucralose, 25° C. (single cell in the row)): Prec. | visual inspection for crystallization ([3]; 15 mg/ml, pH 4.39, NaCl diluent 100 mM, initially added to 40 ml of diluent, −20° C.): Prec. | visual inspection for crystallization ([3]; 15 mg/ml, pH 4.45, NaCl diluent 50 mM, −20° C.): Prec. | visual inspection for crystallization ([3]; 15 mg/ml, pH 4.52, NaCl diluent 25 mM, 2-8° C.): Prec. | visual inspection for crystallization ([3]; 15 mg/ml, pH 4.52, NaCl diluent 25 mM, −20° C.): Prec. | visual inspection for crystallization ([3]; 15 mg/ml, pH 4.75, purified water diluent, 2-8° C.): Prec. | visual inspection for crystallization ([3]; 15 mg/ml, pH 4.75, purified water diluent, −20° C.): Prec. | visual inspection for crystallization ([3]; 18 mg/ml, pH 5.5 (NaOH), NaCl diluent 100 mM, −20° C.): Prec. | visual inspection for crystallization ([3]; 21 mg/ml, pH 5.5 (NaOH), NaCl diluent 100 mM, −20° C.): Prec. | Day 0 concentration sildenafil ([4]; with sucralose (second sample)): 82.79* mg/ml | Day 0 concentration sildenafil ([4]; with sucralose (third sample)): 123.95* mg/ml | Day 0 concentration sildenafil ([4]; without sucralose (first sample)): 51.65 mg/mL | sildenafil assay ([5]; 20 mg/ml with sucralose 1 mg/ml, monoammonium glycyrrhizinate 1 mg/ml, eucalyptus-menthol 3 mg/ml, Day 0, before storage): 102.02 % LS | Impurity B [5, 7]: 0.09 % RS | Impurity D [5, 7]: 0.030 % RS | sildenafil assay [5, 7]: 100.87 % LS | Impurity B [5, 8]: 0.11 % RS | Impurity D [5, 8]: 0.030 % RS | sildenafil assay [5, 8]: 101.53 % LS | Impurity B [5, 9]: 0.20 % RS | Impurity D [5, 9]: 0.034 % RS | sildenafil assay [5, 9]: 100.91 % LS | Impurity B [5, 10]: 0.10 % RS | Impurity D [5, 10]: 0.030 % RS | sildenafil assay [5, 10]: 100.85 % LS | Impurity B [5, 11]: 0.20 % RS | Impurity D [5, 11]: 0.030 % RS | sildenafil assay [5, 11]: 101.46 % LS | Impurity B ([5]; glass, 25° C./60% RH, Day 32): 0.07 % RS | Impurity D ([5]; glass, 25° C./60% RH, Day 32): 0.030 % RS | sildenafil assay ([5]; glass, 25° C./60% RH, Day 32): 100.76 % LS | Impurity B ([5]; glass, 25° C./60% RH, Day 80): 0.10 % RS | Impurity D ([5]; glass, 25° C./60% RH, Day 80): 0.030 % RS | sildenafil assay ([5]; glass, 25° C./60% RH, Day 80): 101.47 % LS | Impurity B ([5]; glass, 25° C./60% RH, Day 159): 0.17 % RS | Impurity D ([5]; glass, 25° C./60% RH, Day 159): 0.038 % RS | sildenafil assay ([5]; glass, 25° C./60% RH, Day 159): 100.68 % LS | Impurity B ([5]; glass, 30° C./65% RH, Day 32): 0.10 % RS | Impurity D ([5]; glass, 30° C./65% RH, Day 32): 0.030 % RS | sildenafil assay ([5]; glass, 30° C./65% RH, Day 32): 100.46 % LS | Impurity B ([5]; glass, 40° C./75% RH, Day 32): 0.17 % RS | Impurity D ([5]; glass, 40° C./75% RH, Day 32): 0.030 % RS | sildenafil assay ([5]; glass, 40° C./75% RH, Day 32): 100.39 % LS | Impurity B ([5]; glass, 40° C./75% RH, Day 159): 0.45 % RS | Impurity D ([5]; glass, 40° C./75% RH, Day 159): 0.039 % RS | sildenafil assay ([5]; glass, 40° C./75% RH, Day 159): 100.60 % LS | Impurity B ([5]; plastic, 25° C./60% RH, Day 32): 0.08 % RS | Impurity D ([5]; plastic, 25° C./60% RH, Day 32): 0.040 % RS | sildenafil assay ([5]; plastic, 25° C./60% RH, Day 32): 100.42 % LS | Impurity B ([5]; plastic, 25° C./60% RH, Day 80): 0.09 % RS | Impurity D ([5]; plastic, 25° C./60% RH, Day 80): 0.030 % RS | sildenafil assay ([5]; plastic, 25° C./60% RH, Day 80): 101.59 % LS | Impurity B [5, 12]: 0.16 % RS | Impurity D [5, 12]: 0.033 % RS | sildenafil assay [5, 12]: 101.19 % LS | Impurity B ([5]; plastic, 30° C./65% RH, Day 32): 0.09 % RS | Impurity D ([5]; plastic, 30° C./65% RH, Day 32): 0.030 % RS | sildenafil assay ([5]; plastic, 30° C./65% RH, Day 32): 100.79 % LS | Impurity B ([5]; plastic, 40° C./75% RH, Day 32): 0.17 % RS | Impurity D ([5]; plastic, 40° C./75% RH, Day 32): 0.030 % RS | sildenafil assay ([5]; plastic, 40° C./75% RH, Day 32): 100.76 % LS | visual inspection for precipitation or crystallization ([6]; 15 mg/ml, pH 5.0, Sodium Citrate, 2-8° C.): Prec. | visual inspection for precipitation or crystallization ([6]; 15 mg/ml, pH 5.0, Sodium Citrate, 25° C.): Prec. | visual inspection for precipitation or crystallization ([6]; 15 mg/ml, pH 5.0, Sodium Citrate, −20° C.): Prec. | visual inspection for precipitation or crystallization ([6]; 15 mg/ml, pH 5.2, NaOH, −20° C.): Prec. | visual inspection for precipitation or crystallization ([6]; 15 mg/ml, pH 6.01, NaOH, 50% ethanol/phosphate buffer, 2-8° C.): Prec. | visual inspection for precipitation or crystallization ([6]; 15 mg/ml, pH 6.01, NaOH, 50% ethanol/phosphate buffer, −20° C.): Prec. | visual inspection for precipitation or crystallization ([6]; 15 mg/ml, pH 6.2, NaOH, 2-8° C.): Prec. | visual inspection for precipitation or crystallization ([6]; 15 mg/ml, pH 6.2, NaOH, 25° C.): Prec. | visual inspection for precipitation or crystallization ([6]; 15 mg/ml, pH 6.2, NaOH, −20° C.): Prec. | visual inspection for precipitation or crystallization ([6]; 15 mg/ml, pH 6.2, Sodium Citrate, 2-8° C.): Prec. | visual inspection for precipitation or crystallization ([6]; 15 mg/ml, pH 6.2, Sodium Citrate, −20° C.): Prec. | visual inspection for precipitation or crystallization ([6]; 18 mg/ml, pH 5.2, NaOH, −20° C.): Prec. | visual inspection for precipitation or crystallization ([6]; 18 mg/ml, pH 5.2, Sodium Citrate, −20° C.): Prec. | visual inspection for precipitation or crystallization ([6]; 18 mg/ml, pH 6.0, NaOH, 50% ethanol/phosphate buffer, 2-8° C.): Prec. | visual inspection for precipitation or crystallization ([6]; 18 mg/ml, pH 6.0, NaOH, 50% ethanol/phosphate buffer, −20° C.): Prec. | visual inspection for precipitation or crystallization ([6]; 18 mg/ml, pH 6.0, Sodium Citrate, 2-8° C.): Prec. | visual inspection for precipitation or crystallization ([6]; 18 mg/ml, pH 6.0, Sodium Citrate, −20° C.): Prec. | visual inspection for precipitation or crystallization ([6]; 18 mg/ml, pH 6.2, NaOH, 2-8° C.): Prec. | visual inspection for precipitation or crystallization ([6]; 18 mg/ml, pH 6.2, NaOH, 25° C.): Prec. | visual inspection for precipitation or crystallization ([6]; 18 mg/ml, pH 6.2, NaOH, −20° C.): Prec. | visual inspection for precipitation or crystallization ([6]; 21 mg/ml, pH 5.29, NaOH, 50% ethanol/phosphate buffer, −20° C.): Prec. | visual inspection for precipitation or crystallization ([6]; 21 mg/ml, pH 5.5, NaOH, −20° C.): Prec. | visual inspection for precipitation or crystallization ([6]; 21 mg/ml, pH 5.5, Sodium Citrate, −20° C.): Prec. | visual inspection for precipitation or crystallization ([6]; 21 mg/ml, pH 5.6, NaOH, 50% ethanol/phosphate buffer, 2-8° C.): Prec. | visual inspection for precipitation or crystallization ([6]; 21 mg/ml, pH 5.6, NaOH, 50% ethanol/phosphate buffer, −20° C.): Prec. | visual inspection for precipitation or crystallization ([6]; 21 mg/ml, pH 5.8, NaOH, 2-8° C.): Prec. | visual inspection for precipitation or crystallization ([6]; 21 mg/ml, pH 6.01, NaOH, 50% ethanol/phosphate buffer, 2-8° C.): Prec. | visual inspection for precipitation or crystallization ([6]; 21 mg/ml, pH 6.01, NaOH, 50% ethanol/phosphate buffer, −20° C.): Prec.
